The values that follow are results of earlier work, collected in patent US5414009A, “Azabicyclo substituted oxa- or thia-diazole compounds” (Novo Nordisk A/S, priority 1992, dated 1995).

Each structure is given as a SMILES string. pKd: −log10 of the molar value. Read-outs that look alike come from different tables or passages of the source.

One data set has as its system M1-sites. To be noted: M1-site, pirenzepine sensitive site.
Data set [1] deals with muscarinic receptor in the CNS. To be noted: for pKd: read-out: affinity of sites labelled by 3H-Oxo.
The conditions of data set [2]: in vivo.

`CN1CCN(CC(=O)N2c3ccccc3C(=O)Nc3cccnc32)CC1` [Pirenzepine, pirenzepine, [N-methyl-^3 H]]: in the data set on M1-sites, the “selective binding to subtype of muscarinic receptors” value was “binds selectively to subtype of muscarinic receptors”. In addition, the “interaction with M2-sites” value with M2-sites was “also interact with M2”.

With `C[N+](C)(C)CC#CCN1CCCC1=O` [Compound 3H-Oxo], the “preference for agonist domains of the receptors” value in data set [1] (CNS) was “with a preference for agonist domains of the receptors”. Moreover, the pKd in data set [1] (first of three sites (high affinity)) was 8.74; in data set [1] (second of three sites (medium affinity)) it was 7.70; in data set [1] (third of three sites), 5.52.

As for `COC(=O)C1=CCCN(C)C1` [Arecoline, methyl 1-methyl-1,2,5,6-tetrahydropyridine-3-carboxylate], the biological half life entry in data set [2] is listed as “very short biological half life”. Moreover, the “separation between central and peripheral muscarinic effects” value with muscarinic was “small separation between central and peripheral muscarinic effects”. The cholinergic agonism result with muscarinic cholinergic is “cholinergic agonist”.
